Like-named read-outs stand apart in the source and are kept apart here.
What was measured:
[1] = target: T1, LTRPC2 NUDT9-H (Homo sapiens, UniProt O94759); test: Nudix-type hydrolase activity towards a panel of substrates, NUDT9-H region of LTRPC2; format: biochemical; details: purified bacterially expressed NUDT9-H of LTRPC2
T1 construct: an artificial start codon, amino acids 1197-1503, a stop codon; artificial initiating Met (artificial start codon) (N); made in house; host or cells: E. coli BL21 (DE3), pET-24d
T1 sequence (O94759 1197-1503): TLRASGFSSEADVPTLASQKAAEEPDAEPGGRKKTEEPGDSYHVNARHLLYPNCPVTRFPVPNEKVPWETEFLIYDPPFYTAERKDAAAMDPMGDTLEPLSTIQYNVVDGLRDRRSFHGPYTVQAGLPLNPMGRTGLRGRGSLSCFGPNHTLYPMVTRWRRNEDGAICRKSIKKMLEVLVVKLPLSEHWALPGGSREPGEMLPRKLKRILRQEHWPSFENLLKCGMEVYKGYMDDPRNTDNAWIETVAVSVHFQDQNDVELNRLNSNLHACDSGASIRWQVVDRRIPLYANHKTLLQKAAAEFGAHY
Protocol: (§1) FIG. 2(B) is a characterization of the enzymatic activity of NUDT9 and NUDT9-H. Purified preparations of NUDT9 and NUDT9-H were screened for Nudix-type activity towards a panel of substrates as described in the methods section. Km and Vmax were calculated by non-linear regression analysis of Lineweaver-Burke plots.
(§2) BL21 (DE3) cells containing the respective expression plasmids were grown at 37° C. in LB broth on a shaker to an A600 of about 0.6 and induced by the addition of isopropyl-b-D-thiogalactopyranoside to a concentration of 1 mM. The cells were grown for an additional 4 h, harvested, washed by suspension in isotonic saline, centrifuged in pre-weighed centrifuge tubes, and the packed cells were stored at −80 ° C. […] In the case of NUDT9, enzyme was extracted in the freeze-thaw fraction and ammonium sulfate was added to 35% final concentration. The precipitate was discarded after centrifugation and ammonium sulfate was added to the supernatant to a final concentration of 50%. The precipitate was collected by centrifugation, dissolved, then chromatographed on a gel filtration column (Sephadex G-100). The active fractions containing the majority of the enzyme were pooled, concentrated by centrifugation in an Amicon Centriprep30, dialyzed, and chromatographed on DEAE-sepharose. The purified enzyme was concentrated from the pooled active fractions again using an Amicon Centriprep30. For the NUDT9 homology region of LTRPC2, the protein was extracted in the freeze-thaw fraction and ammonium sulfate was added to 35% final concentration and centrifuged. The precipitate was dissolved, dialyzed, and chromatographed on DEAE-sepharose. The purified enzyme was concentrated from the pooled active fractions by precipitation with 70% ammonium sulfate.
(§3) Enzyme Assay: Enzyme velocities were quantified by measuring the conversion of a phosphatase-insensitive substrate, ADPR, to the phosphatase-sensitive products, AMP and ribose-5-phosphate. The liberated inorganic orthophosphate was measured by the procedure of Ames and DubinENRfu^27. The standard incubation mixture ([…]) contained 50 mM Tris-Cl, pH 9.0, 16 mM MgCl2, 2 mM ADPR, 0.2-1 milliunitsof enzyme and 4 units of alkaline intestinal phosphatase. After 30 min at 37° C., the reaction was terminated by the addition of EDTA and inorganic orthophosphate was measured. A unit of enzyme hydrolyzes […] of substrate per min under these conditions. Note that 2 moles of phosphate are liberated per mole of ADPR hydrolyzed. Product determination: The standard assay mixture (minus alkaline intestinal phosphatase) was incubated for 30 min at 37° C. and terminated by the addition of […] of a mixture of four parts of Norit (20% packed volume) and one part of 7% HClO4 to remove adenine-containing nucleotides. After centrifugation, […] was adjusted to an alkaline pH and incubated for an additional 30 min at 37° C. with alkaline intestinal phosphatase to hydrolyze the ribose-5-phosphate formed.

[2] = target: T2, NUDT9 (Homo sapiens, UniProt Q9BW91); test: Nudix-type hydrolase activity towards a panel of substrates, NUDT9; format: biochemical; details: purified bacterially expressed NUDT9
T2 construct: made in house; host or cells: E. coli BL21 (DE3), pET-24d
T2 sequence (Q9BW91 47-350): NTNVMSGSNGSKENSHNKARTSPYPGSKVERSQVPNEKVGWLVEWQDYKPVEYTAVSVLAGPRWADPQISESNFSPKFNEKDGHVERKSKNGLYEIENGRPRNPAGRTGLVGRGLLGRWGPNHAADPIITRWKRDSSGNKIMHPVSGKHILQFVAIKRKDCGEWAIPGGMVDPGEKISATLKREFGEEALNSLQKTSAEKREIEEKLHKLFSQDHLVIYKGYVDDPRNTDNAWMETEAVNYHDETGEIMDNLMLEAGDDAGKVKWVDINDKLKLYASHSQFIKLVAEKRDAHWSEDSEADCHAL
Protocol: as §1, §2, §3

[3] = test system: ADPR-dependent current (IADPR) in human U937 monocytes; test: Endogenous ADPR-dependent current (IADPR), whole-cell patch-clamp in U937 monocytes; format: cell-based; details: U937 cells; for EC50: read-out: apparent EC50 for IADPR
Protocol: FIG. 5 depicts the characterization of endogenous ADPR-dependent current(IADPR) in human U937 monocytes. […] In the right lane, the blot identifies LTRPC2 mRNA in native U937 cells. […] FIG. 5(B) depicts the temporal development of inward currents in U937 cells at −80 mV activated by different intracellular concentrations of ADPR in the presence of 10 mM BAPTA (n=4-11 each). FIG. 5(C) depicts the temporal development of inward currents in U937 cells at −80 mV activated by different intracellular concentrations of ADPR while [Ca^2+]i was buffered to 100 nM (n=5-7 each). FIG. 5(D) depicts the temporal development of inward currents in U937 cells at −80 mV activated by different intracellular concentrations of ADPR in the absence of exogenous buffers (n=5-9 each). […] Representative current record in response to a voltage ramp ranging from −100 to +100 mV over 50 ms. The record was obtained 100 s after whole-cell establishment from a cell perfused with 100 μM ADPR under unbuffered conditions.
For patch-clamp experiments, cells grown on coverslips were transferred to the recording chamber and kept in a standard modified Ringer's solution of the following composition (in mM): NaCl 145, KCl 2.8, CaCl2 1, MgCl2 2, glucose 10, Hepes-NaOH 10, pH 7.2. Intracellular pipette-filling solutions contained (in mM): Cs-glutamate 145, NaCl 8, MgCl2 1, Cs-BAPTA 10, pH 7.2 adjusted with CsOH. In some experiments, BAPTA was omitted from the pipette solution and 100 μM fura-2 was added for the purpose of fluorimetric monitoring of intracellular Ca^2+ concentration. […] The agonists were dissolved in the standard intracellular solution. Patch-clamp experiments were performed in the tight-seal whole-cell configuration at 21-25° C. High-resolution current recordings were acquired by a computer-based patch-clamp amplifier system (EPC-9, HEKA, Lambrecht, Germany). Patch pipettes had resistances between 2-4 MW after filling with the standard intracellular solution. Immediately following establishment of the 5 whole-cell configuration, voltage ramps of 50 ms duration spanning the voltage range of −100 to +100 mV were delivered from a holding potential of 0 mV at a rate of 0.5 Hz over a period of 200 to 400 seconds. All voltages were corrected for a liquid junction potential of 10 mV between external and internal solutions. Currents were filtered at 2.9 kHz and digitized at 100 μs intervals. Capacitive currents and series resistance were determined and corrected before each voltage ramp using the automatic capacitance compensation of the EPC-9. For analysis, the very first ramps prior to current activation were digitally filtered at 2 kHz, pooled and used for leak-subtraction of all subsequent current records. […]

[4] = target: T3, LTRPC2 (Homo sapiens, UniProt O94759); test: ADPR-dependent gating of LTRPC2, whole-cell patch-clamp in tetracycline-induced HEK-293 cells expressing FLAG-LTRPC2; format: cell-based
T3 construct: beginning at amino acid 3 and extending to amino acid 1503; FLAG tag within the printed N-terminal leader […]; expressed in transfected cells
T3 sequence (O94759 3-1503): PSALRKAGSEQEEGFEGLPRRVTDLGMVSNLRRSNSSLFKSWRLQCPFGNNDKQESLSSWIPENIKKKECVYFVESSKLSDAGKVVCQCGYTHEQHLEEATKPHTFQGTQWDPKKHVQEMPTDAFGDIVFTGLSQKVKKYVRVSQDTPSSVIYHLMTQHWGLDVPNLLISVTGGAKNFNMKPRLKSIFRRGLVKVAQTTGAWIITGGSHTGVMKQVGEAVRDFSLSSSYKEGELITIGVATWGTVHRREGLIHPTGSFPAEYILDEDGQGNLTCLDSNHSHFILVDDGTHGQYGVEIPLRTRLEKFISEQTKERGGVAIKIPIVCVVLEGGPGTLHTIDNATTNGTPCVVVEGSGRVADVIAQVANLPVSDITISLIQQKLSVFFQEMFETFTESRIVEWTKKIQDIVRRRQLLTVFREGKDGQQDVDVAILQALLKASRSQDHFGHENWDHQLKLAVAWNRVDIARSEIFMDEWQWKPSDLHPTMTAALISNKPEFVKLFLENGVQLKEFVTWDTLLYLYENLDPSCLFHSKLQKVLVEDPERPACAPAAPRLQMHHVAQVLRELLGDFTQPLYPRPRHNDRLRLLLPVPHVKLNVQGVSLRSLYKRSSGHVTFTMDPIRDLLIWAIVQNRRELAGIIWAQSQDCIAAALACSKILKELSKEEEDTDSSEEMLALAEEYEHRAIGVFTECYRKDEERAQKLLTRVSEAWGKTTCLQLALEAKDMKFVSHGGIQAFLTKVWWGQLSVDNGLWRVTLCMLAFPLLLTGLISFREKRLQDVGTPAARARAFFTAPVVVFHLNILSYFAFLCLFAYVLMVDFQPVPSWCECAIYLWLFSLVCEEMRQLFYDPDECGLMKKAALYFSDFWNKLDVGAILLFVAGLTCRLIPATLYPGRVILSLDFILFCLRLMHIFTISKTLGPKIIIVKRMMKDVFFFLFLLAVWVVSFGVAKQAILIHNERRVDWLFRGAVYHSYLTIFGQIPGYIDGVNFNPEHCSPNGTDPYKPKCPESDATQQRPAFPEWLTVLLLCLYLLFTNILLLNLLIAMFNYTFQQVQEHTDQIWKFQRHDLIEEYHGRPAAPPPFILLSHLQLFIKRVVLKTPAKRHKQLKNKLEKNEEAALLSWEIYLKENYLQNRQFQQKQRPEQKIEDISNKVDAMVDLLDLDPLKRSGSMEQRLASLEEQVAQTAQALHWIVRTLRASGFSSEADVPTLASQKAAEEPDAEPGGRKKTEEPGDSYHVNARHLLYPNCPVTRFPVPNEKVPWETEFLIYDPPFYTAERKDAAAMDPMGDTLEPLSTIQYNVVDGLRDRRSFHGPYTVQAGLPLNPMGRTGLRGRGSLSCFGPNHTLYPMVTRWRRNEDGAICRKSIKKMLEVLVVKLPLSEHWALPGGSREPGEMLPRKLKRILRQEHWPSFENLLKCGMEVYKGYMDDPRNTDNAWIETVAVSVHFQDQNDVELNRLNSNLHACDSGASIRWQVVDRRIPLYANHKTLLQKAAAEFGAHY
Protocol: 10^6 cells were analyzed for expression of a FLAG-reactive protein by anti-FLAG immunoprecipitation/anti-FLAG immunoblotting. […] The open symbols represent superimposed analyses of responses obtained from (i) wild-type HEK-293 cells (WT) perfused with standard internal solution in the absence of ADPR (n=3±sem); (ii) uninduced cells perfused with standard internal solution in the absence of ADPR (n=5±sem); (iii) uninduced HEK-293 cells perfused with standard solution containing 1 mM ADPR (n=3±sem); (iv) tet-induced HEK-293 cells perfused with standard internal solution without ADPR present (n=4±sem). […] The filled symbols indicate the time points at which individual high-resolution data traces were extracted for presentation as I/V curves in FIG. 3(F). […] Ramp currents were recorded in response of a standard voltage ramp stimulus (−100 mV to +100 mV in 50 ms).
FIG. 4 depicts the characterization of ADPR-dependent currents in LTRPC2-expressing in HEK-293 cells. […] HEK-293 cells expressing FLAG-LTRPC2 were perfused with defined ADPR concentrations ranging from […] to 1 mM, and currents were measured at −80 mV as in FIG. 3(D). The maximum current amplitude of individual cells was derived by analyzing the time course of current development (see e.g., FIGS. 3(C) and 3(D)) and fitting a Boltzmann curve to the rising phase of the developing cationic conductance. Peak current amplitudes were averaged and plotted versus ADPR concentration (n=5 to 12±sem). […] FIG. 4(B) depicts the kinetics of ADPR-dependent gating of LTRPC2. The temporal development of ADPR-gated currents was assessed as described in FIG. 4(A) by fitting a Boltzmann curve to the rising phase of the developing cationic conductance. The mid-point values of this analysis correspond to the time of half-maximal current activation, and are plotted as a function of ADPR concentration. […] HEK-293 cells expressing FLAG-LTRPC2 were perfused with 100 μM ADPR. 80 seconds into the experiment, and indicated by the bar, isotonic CaCl2 solution (120 mM CaCl2, 300 mOsm) was applied externally for 20 seconds.
Wild type and tetracycline-inducible HEK-293 FLAG-LTRPC2 expressing cells were cultured at 37° C./5% CO2 in DMEM supplemented with 10% FBS and 2 mM glutamine. The medium was supplemented with blasticidin (5 μg/ml; Invitrogen) and zeocin (0.4 mg/ml; Invitrogen). Cells were resuspended in media containing 1 μg/ml tetracycline (Invitrogen) 24 hours before experiments.
For patch-clamp experiments, cells grown on coverslips were transferred to the recording chamber and kept in a standard modified Ringer's solution of the following composition (in mM): NaCl 145, KCl 2.8, CaCl2 1, MgCl2 2, glucose 10, Hepes-NaOH 10, pH 7.2. Intracellular pipette-filling solutions contained (in mM): Cs-glutamate 145, NaCl 8, MgCl2 1, Cs-BAPTA 10, pH 7.2 adjusted with CsOH.

hydrolysis as substrate by NUDT9-H [1]	hydrolysis as substrate by NUDT9 [2]	SMILES	other results
not hydrolyzed	not hydrolyzed	Nc1nc2c(ncn2[C@H]2C[C@H](O)[C@@H](COP(=O)(O)OP(=O)(O)OP(=O)(O)O)O2)c(=O)[nH]1 [deoxy-GTP]	
not hydrolyzed	not hydrolyzed	NC(=O)C1=CN([C@@H]2O[C@H](COP(=O)(O)OP(=O)(O)OC[C@H]3O[C@@H](n4cnc5c(N)ncnc54)[C@H](O)[C@@H]3O)[C@@H](O)[C@H]2O)C=CC1 [NADH]	
not hydrolyzed	not hydrolyzed	NC(=O)c1ccc[n+]([C@@H]2O[C@H](COP(=O)([O-])OP(=O)(O)OC[C@H]3O[C@@H](n4cnc5c(N)ncnc54)[C@H](O)[C@@H]3O)[C@@H](O)[C@H]2O)c1 [NAD^+, nicotinamide adenine dinucleotide]	

Further lines, the compound ahead of its results:

SMILES	hydrolysis as substrate by NUDT9-H [1]	hydrolysis as substrate by NUDT9 [2]	other results
Nc1nc2c(ncn2[C@@H]2O[C@H](COP(=O)(O)OP(=O)(O)O[C@H]3O[C@H](CO)[C@@H](O)[C@H](O)[C@@H]3O)[C@@H](O)[C@H]2O)c(=O)[nH]1 [GDP-mannose]	not hydrolyzed	not hydrolyzed	
Cc1cn([C@H]2C[C@H](O)[C@@H](COP(=O)(O)OP(=O)(O)OP(=O)(O)O)O2)c(=O)[nH]c1=O [deoxy-TTP]	not hydrolyzed	not hydrolyzed	
Nc1ncnc2c1ncn2[C@@H]1O[C@H](COP(=O)(O)OP(=O)(O)OC[C@H]2OC(O)[C@H](O)[C@@H]2O)[C@@H](O)[C@H]1O (stereo partly drawn) [ADPR, Adenosine 5-diphospho (ADP)-ribose]			Hill coefficient ([3]; [Ca2+]i buffered to 100 nM): 8; EC50 ([3]; [Ca2+]i buffered to 100 nM): 130 µM; Hill coefficient ([3]; unbuffered): 8; EC50 ([3]; unbuffered (exogenous buffers omitted)): 40 µM; Hill coefficient of dose-response curve ([4]; HEK-293 cells expressing FLAG-LTRPC2, currents at −80 mV): 9; EC50 ([4]; HEK-293 cells expressing FLAG-LTRPC2, intracellular perfusion, peak currents at −80 mV, read-out: apparent EC50 of ADPR-dependent gating of LTRPC2): 90 µM; cells that generated currents above control levels ([4]; cells perfused with 60 μM ADPR or higher (n=38)): 91%; intracellular concentration at which gating of the LTRPC2 channel begins ([4]; intracellular ADPR): 60 to 100 µM; intracellular concentration at which saturation occurs ([4]; intracellular ADPR): ~300 µM; membrane currents at −80 mV ([4]; tet-induced HEK-293 cells expressing FLAG-LTRPC2 perfused with 100 μM ADPR): large inward currents
Nc1ncnc2c1ncn2[C@@H]1O[C@H](COP(=O)(O)OP(=O)(O)O[C@H]2O[C@H](CO)[C@@H](O)[C@H](O)[C@H]2O)[C@@H](O)[C@H]1O [ADP-lucose]	not hydrolyzed	not hydrolyzed	
Nc1ccn([C@H]2C[C@H](O)[C@@H](COP(=O)(O)OP(=O)(O)OP(=O)(O)O)O2)c(=O)n1 [deoxy-CTP]	not hydrolyzed	not hydrolyzed	
